# Patent US20260070945A1, “MACROCYCLIC IMMUNOMODULATORS” (Bristol-Myers Squibb Company, priority 2022, published 2026)
# Where a SMILES comes first, the peptide text is derived from it. Bridges are numbered along the chain shown (N, C = ends). [ ]: non-standard residue; d: D form. The star is where a group is joined. ξ: configuration not given here. X7 = NC[C@H](NC(=O)CNCCNCCN*)C(=O)NCCCCCCCCCCC(=O)O; Phe(3-CF3) = N[C@@H](Cc1cccc(C(F)(F)F)c1)C(=O)O; Phe(4-CF3) = N[C@@H](Cc1ccc(C(F)(F)F)cc1)C(=O)O; Phe(4-COOH) = N[C@@H](Cc1ccc(C(=O)O)cc1)C(=O)O; Bip = N[C@@H](Cc1ccc(-c2ccccc2)cc1)C(=O)O; Phe(3-Me) = Cc1cccc(C[C@H](N)C(=O)O)c1; NH(CH2)12COOH = O=C(O)CCCCCCCCCCCCN*; Val(3-OH) = CC(C)(O)[C@H](N)C(=O)O; 3Thi = N[C@@H](Cc1ccsc1)C(=O)O; Cha = N[C@@H](CC1CCCCC1)C(=O)O; Cit = NC(=O)NCCC[C@H](N)C(=O)O; Ile(3ξ) = CCC(C)[C@H](N)C(=O)O; Thr(3ξ) = CC(O)[C@H](N)C(=O)O; 12Ado = NCCCCCCCCCCCC(=O)O; Carboxymethyl = O=C(O)C*; NMeA = CN[C@@H](C)C(=O)O; Orn = NCCC[C@H](N)C(=O)O; Aun = NCCCCCCCCCCC(=O)O; Dab = NCC[C@H](N)C(=O)O; Dap = NC[C@H](N)C(=O)O; AEEA = NCCOCCOCC(=O)O; Ac3c = NC1(C(=O)O)CC1
# Molecular target: T1, PD-1/PD-L1 interaction (PE-labeled human PD-L1-Ig binding to Jurkat cell line over-expressing human PD-1) (Homo sapiens, UniProt Q15116)
# T1 construct: expressed in transfected cells; host or cells: Jurkat
# Test: Jurkat-PD-1 Cell Binding High-Content Screening Assay (CBA)
# Settings: Jurkat-hPD-1 cells, PE-labeled PD-L1-Ig 20 nM final; read-out: Jurkat HPD1 PDL1 IC50
# In short: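 Cells 8×10^3/well, DMEM + 10% FCS; cpd 2 h, 37 °C; PE–PD-L1-Ig 20 nM final, 1 h; PFA fix + Hoechst 33342, 3× dPBS wash; high-content imager.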
# T1 sequence (Q15116 25-288): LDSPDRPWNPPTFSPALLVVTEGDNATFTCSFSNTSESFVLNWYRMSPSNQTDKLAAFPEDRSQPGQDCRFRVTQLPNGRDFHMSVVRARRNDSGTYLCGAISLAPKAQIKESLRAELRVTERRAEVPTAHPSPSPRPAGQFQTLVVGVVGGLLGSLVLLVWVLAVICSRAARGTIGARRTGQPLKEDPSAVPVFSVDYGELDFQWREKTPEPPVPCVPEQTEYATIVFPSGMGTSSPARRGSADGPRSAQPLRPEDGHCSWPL
row,Compound,IC50 [nM]
1,CCC(C)[C@@H]1NC(=O)[C@H](Cc2ccc(-c3ccccc3)cc2)NC(=O)[C@H](C(C)C)NC(=O)[C@H](Cc2c[nH]c3ccccc23)NC(=O)[C@H](CC(=O)O)NC(=O)[C@H](Cc2ccc(O)cc2)NC(=O)[C@H](C(C)O)NC(=O)CSC[C@@H](C(=O)N[C@@H](CC(N)=O)C(=O)NCCOCCOCC(=O)NCCCCCCCCCCC(=O)O)NC(=O)[C@H](CO)NC(=O)[C@H](C(C)C)NC(=O)[C@H](CC(C)C)NC(=O)[C@H](CCN)NC(=O)[C@@H](CC(C)C)NC(=O)[C@H](C)N(C)C1=O (stereo partly drawn) [Example 2050] ({CH2CO}-[Thr(3ξ)]YDWV[Bip][Ile(3ξ)][NMeA][dL][Dab]LVSCN[AEEA][Aun]-OH; thioether N-14),25.8
2,Cc1cccc(C[C@@H]2NC(=O)[C@H](CC(=O)O)NC(=O)[C@H](Cc3ccc(OCC(=O)O)cc3)NC(=O)[C@H](CN)NC(=O)CSC[C@@H](C(=O)NCCNCCNCC(=O)N[C@@H](CN)C(=O)NCCCCCCCCCCC(=O)O)NC(=O)[C@H](CO)NC(=O)[C@H](C(C)C)NC(=O)[C@H](CC(C)C)NC(=O)[C@H](CC(N)=O)NC(=O)[C@@H](CC(C)C)NC(=O)[C@H](C)N(C)C(=O)[C@H](C(C)C)NC(=O)[C@H](Cc3ccc(-c4ccccc4)cc3)NC(=O)[C@H](CC(C)C)NC2=O)c1 [Example 1062] ({CH2CO}-[Dap]Y(Carboxymethyl)D[Phe(3-Me)]L[Bip]V[NMeA][dL]NLVSC-X7; thioether N-14),26.9
3,CC(C)C[C@@H]1NC(=O)[C@H](Cc2c[nH]c3ccccc23)NC(=O)[C@H](CC(=O)O)NC(=O)[C@H](Cc2ccc(C(=O)O)cc2)NC(=O)[C@H](Cc2ccc(OCC(=O)O)cc2)NC(=O)CSC[C@@H](C(=O)NCCOCCOCC(=O)NCCCCCCCCCCC(=O)O)NC(=O)[C@H](CCCNC(N)=O)NC(=O)[C@H](C(C)C)NC(=O)[C@H](CC2CCCCC2)NC(=O)[C@H](CCN)NC(=O)[C@@H](CC(C)C)NC(=O)[C@H](C)N(C)C(=O)[C@H](Cc2ccc(O)cc2)NC(=O)[C@H](Cc2ccc(-c3ccccc3)cc2)NC1=O [Example 1101] ({CH2CO}-Y(Carboxymethyl)[Phe(4-COOH)]DWL[Bip]Y[NMeA][dL][Dab][Cha]V[Cit]C[AEEA][Aun]-OH; thioether N-14),48
4,CC[C@H](C)[C@@H]1NC(=O)[C@H](Cc2ccc(-c3ccccc3)cc2)NC(=O)[C@H](CC(C)C)NC(=O)[C@H](Cc2c[nH]c3ccccc23)NC(=O)[C@H](CC(=O)O)NC(=O)[C@H](Cc2ccc(C(=O)O)cc2)NC(=O)[C@H](Cc2ccc(OCC(=O)O)cc2)NC(=O)CSC[C@@H](C(=O)N[C@@H](CN)C(=O)NCCCCCCCCCCC(=O)O)NC(=O)[C@H](CO)NC(=O)[C@H](C(C)C)NC(=O)[C@H](CC2CCCCC2)NC(=O)[C@H](CCN)NC(=O)[C@@H](CC(C)C)NC(=O)[C@H](C)N(C)C1=O [Example 1070] ({CH2CO}-Y(Carboxymethyl)[Phe(4-COOH)]DWL[Bip]I[NMeA][dL][Dab][Cha]VSC[Dap][Aun]-OH; thioether N-14),39.2

# Continued, values first:
row,IC50 [nM],Compound
1,22.8,Cc1cccc(C[C@@H]2NC(=O)[C@H](CC(=O)O)NC(=O)[C@H](Cc3ccc(OCC(=O)O)cc3)NC(=O)[C@H](CN)NC(=O)CSC[C@@H](C(=O)NC3(C(=O)NCCOCCOCC(=O)NCCCCCCCCCCC(=O)O)CC3)NC(=O)[C@H](CCCN)NC(=O)[C@H](C(C)C)NC(=O)[C@H](CC3CCCCC3)NC(=O)[C@H](CCN)NC(=O)[C@@H](CC(C)C)NC(=O)[C@H](C)N(C)C(=O)[C@H](Cc3ccc(O)cc3)NC(=O)[C@H](Cc3ccc(-c4ccccc4)cc3)NC(=O)[C@H](Cc3ccc(O)cc3)NC2=O)c1 [Example 1252] ({CH2CO}-[Dap]Y(Carboxymethyl)D[Phe(3-Me)]Y[Bip]Y[NMeA][dL][Dab][Cha]V[Orn]C[Ac3c][AEEA][Aun]-OH; thioether N-14)
2,20,CC(C)C[C@@H]1NC(=O)[C@H](Cc2c[nH]c3ccccc23)NC(=O)[C@H](CC(=O)O)NC(=O)[C@H](Cc2ccc(OCC(=O)O)cc2)NC(=O)[C@H](Cc2ccc(OCC(=O)O)cc2)NC(=O)CSC[C@@H](C(=O)NCCOCCOCC(=O)N[C@@H](CCN)C(=O)NCCCCCCCCCCC(=O)O)NC(=O)[C@H](CCCN)NC(=O)[C@H](C(C)C)NC(=O)[C@H](CC2CCCCC2)NC(=O)[C@H](CCN)NC(=O)[C@@H](CC(C)C)NC(=O)[C@H](C)N(C)C(=O)[C@H](C(C)C)NC(=O)[C@H](Cc2ccc(-c3ccccc3)cc2)NC1=O [Example 2158] ({CH2CO}-Y(Carboxymethyl)Y(Carboxymethyl)DWL[Bip]V[NMeA][dL][Dab][Cha]V[Orn]C[AEEA][Dab][Aun]-OH; thioether N-14)
3,18.2,COC[C@@H]1NC(=O)CSC[C@@H](C(=O)N[C@@H](CCN)C(=O)NCCCCCCCCCCCCC(=O)O)NC(=O)[C@H](Cc2c[nH]cn2)NC(=O)[C@H](C(C)(C)O)NC(=O)[C@H](CC2CCCCC2)NC(=O)[C@H](CCN)NC(=O)[C@@H](CC(C)C)NC(=O)[C@H](C)N(C)C(=O)[C@H](CCCNC(N)=O)NC(=O)[C@H](Cc2ccc(-c3ccccc3)cc2)NC(=O)[C@H](Cc2ccc(C(=O)O)cc2)NC(=O)[C@H](Cc2cccc(C(F)(F)F)c2)NC(=O)[C@H](CC(=O)O)NC(=O)[C@H](Cc2ccc(OCC(=O)O)cc2)NC1=O [Example 1141] ({CH2CO}-S(Me)Y(Carboxymethyl)D[Phe(3-CF3)][Phe(4-COOH)][Bip][Cit][NMeA][dL][Dab][Cha][Val(3-OH)]HC[Dab]-{NH(CH2)12COOH}; thioether N-14)
4,12.7,CC(C)C[C@@H]1NC(=O)[C@H](Cc2c[nH]c3ccccc23)NC(=O)[C@H](CC(=O)O)NC(=O)[C@H](Cc2c[nH]cn2)NC(=O)[C@H](Cc2ccc(OCC(=O)O)cc2)NC(=O)CSC[C@@H](C(=O)N[C@@H](CCCN)C(=O)NCCOCCOCC(=O)NCCCCCCCCCCC(=O)O)NC(=O)[C@H](CO)NC(=O)[C@H](C(C)C)NC(=O)[C@H](CC2CCCCC2)NC(=O)[C@H](CCN)NC(=O)[C@@H](CC(C)C)NC(=O)[C@H](C)N(C)C(=O)[C@H](C(C)C)NC(=O)[C@H](Cc2ccc(-c3ccccc3)cc2)NC1=O [Example 2146] ({CH2CO}-Y(Carboxymethyl)HDWL[Bip]V[NMeA][dL][Dab][Cha]VSC[Orn][AEEA][Aun]-OH; thioether N-14)
5,7.1,Cc1cccc(C[C@@H]2NC(=O)[C@H](CC(=O)O)NC(=O)[C@H](Cc3ccc(OCC(=O)O)cc3)NC(=O)[C@H](C(C)O)NC(=O)CSC[C@@H](C(=O)NCCOCCOCC(=O)NCCCCCCCCCCC(=O)O)NC(=O)[C@H](C(C)O)NC(=O)[C@H](C(C)C)NC(=O)[C@H](CC3CCCCC3)NC(=O)[C@H](CCN)NC(=O)[C@@H](CC(C)C)NC(=O)[C@H](C)N(C)C(=O)[C@H](CCCNC(N)=O)NC(=O)[C@H](Cc3ccc(-c4ccccc4)cc3)NC(=O)[C@H](C(C)C)NC2=O)c1 (stereo partly drawn) [Example 2320] ({CH2CO}-[Thr(3ξ)]Y(Carboxymethyl)D[Phe(3-Me)]V[Bip][Cit][NMeA][dL][Dab][Cha]V[Thr(3ξ)]C[AEEA][Aun]-OH; thioether N-14)
6,6,CCC(C)[C@@H]1NC(=O)[C@H](Cc2ccc(-c3ccccc3)cc2)NC(=O)[C@H](C(C)C)NC(=O)[C@H](Cc2c[nH]c3ccccc23)NC(=O)[C@H](CC(=O)O)NC(=O)[C@H](Cc2ccc(OCC(=O)O)cc2)NC(=O)[C@H](Cc2ccc(OCC(=O)O)cc2)NC(=O)CSC[C@@H](C(=O)N[C@H](CC(N)=O)C(=O)NCCCCCCCCCCC(=O)O)NC(=O)[C@H](CCCCN)NC(=O)[C@H](C(C)C)NC(=O)[C@H](CC2CCCCC2)NC(=O)[C@H](CCN)NC(=O)[C@@H](CC(C)C)NC(=O)[C@H](C)N(C)C1=O (stereo partly drawn) [Example 2239] ({CH2CO}-Y(Carboxymethyl)Y(Carboxymethyl)DWV[Bip][Ile(3ξ)][NMeA][dL][Dab][Cha]VKC[dN][Aun]-OH; thioether N-14)

# Same assay, conditions: PE-labeled PD-L1-Ig 20 nM final, Jurkat-hPD-1 cells; read-out: Jurkat HPD1 PDL1 IC50
row,IC50 [nM],Compound
1,2.3,Cc1cccc(C[C@@H]2NC(=O)[C@H](CC(=O)O)NC(=O)[C@H](Cc3ccc(OCC(=O)O)cc3)NC(=O)[C@H]([C@@H](C)O)NC(=O)CSC[C@@H](C(=O)N[C@@H](CCN)C(=O)NCCOCCOCC(=O)NCCCCCCCCCCCC(=O)O)NC(=O)CNC(=O)[C@H](C(C)C)NC(=O)[C@H](CC3CCCCC3)NC(=O)[C@H](CCN)NC(=O)[C@@H](CC(C)C)NC(=O)[C@H](C)N(C)C(=O)[C@H](Cc3ccc(OCC(=O)O)cc3)NC(=O)[C@H](Cc3ccc(-c4ccccc4)cc3)NC(=O)[C@H](Cc3ccc(OCC(=O)O)cc3)NC2=O)c1 [Example 2664] ({CH2CO}-TY(Carboxymethyl)D[Phe(3-Me)]Y(Carboxymethyl)[Bip]Y(Carboxymethyl)[NMeA][dL][Dab][Cha]VGC[Dab][AEEA][12Ado]-OH; thioether N-14)
2,22.2,Cc1cccc(C[C@@H]2NC(=O)[C@H](CC(=O)O)NC(=O)[C@H](Cc3ccc(OCC(=O)O)cc3)NC(=O)[C@H](Cc3ccc(C(F)(F)F)cc3)NC(=O)CSC[C@@H](C(=O)N[C@@H](CCN)C(=O)NCCOCCOCC(=O)NCCCCCCCCCCC(=O)O)NC(=O)[C@H](CCC(=O)O)NC(=O)[C@H](C(C)C)NC(=O)[C@H](CC3CCCCC3)NC(=O)[C@H](CCN)NC(=O)[C@@H](CC(C)C)NC(=O)[C@H](C)N(C)C(=O)[C@H](Cc3ccc(C(=O)O)cc3)NC(=O)[C@H](Cc3ccc(-c4ccccc4)cc3)NC(=O)[C@H](Cc3ccc(C(=O)O)cc3)NC2=O)c1 [Example 2578] ({CH2CO}-[Phe(4-CF3)]Y(Carboxymethyl)D[Phe(3-Me)][Phe(4-COOH)][Bip][Phe(4-COOH)][NMeA][dL][Dab][Cha]VEC[Dab][AEEA][Aun]-OH; thioether N-14)
3,19.5,Cc1cccc(C[C@@H]2NC(=O)[C@H](CC(=O)O)NC(=O)[C@H](Cc3ccc(C(=O)O)cc3)NC(=O)[C@H](Cc3ccsc3)NC(=O)CSC[C@@H](C(=O)N[C@@H](CCN)C(=O)NCCOCCOCC(=O)NCCOCCOCC(=O)NCCCCCCCCCCC(=O)O)NC(=O)[C@H](CCC(=O)O)NC(=O)[C@H](C(C)(C)O)NC(=O)[C@H](CC3CCCCC3)NC(=O)[C@H](CCN)NC(=O)[C@@H](CC(C)C)NC(=O)[C@H](C)N(C)C(=O)[C@H](Cc3ccc(OCC(=O)O)cc3)NC(=O)[C@H](Cc3ccc(-c4ccccc4)cc3)NC(=O)[C@H](Cc3ccc(OCC(=O)O)cc3)NC2=O)c1 [Example 2500] ({CH2CO}-[3Thi][Phe(4-COOH)]D[Phe(3-Me)]Y(Carboxymethyl)[Bip]Y(Carboxymethyl)[NMeA][dL][Dab][Cha][Val(3-OH)]EC[Dab][AEEA][AEEA][Aun]-OH; thioether N-14)
